This assay concerns the target T1, Or13a cells (OR from Drosophila melanogaster with Orco) (Drosophila melanogaster, UniProt Q9VXL0).
T1 construct: with Odorant receptor coreceptor
T1 sequence (Q9VXL0 1-418): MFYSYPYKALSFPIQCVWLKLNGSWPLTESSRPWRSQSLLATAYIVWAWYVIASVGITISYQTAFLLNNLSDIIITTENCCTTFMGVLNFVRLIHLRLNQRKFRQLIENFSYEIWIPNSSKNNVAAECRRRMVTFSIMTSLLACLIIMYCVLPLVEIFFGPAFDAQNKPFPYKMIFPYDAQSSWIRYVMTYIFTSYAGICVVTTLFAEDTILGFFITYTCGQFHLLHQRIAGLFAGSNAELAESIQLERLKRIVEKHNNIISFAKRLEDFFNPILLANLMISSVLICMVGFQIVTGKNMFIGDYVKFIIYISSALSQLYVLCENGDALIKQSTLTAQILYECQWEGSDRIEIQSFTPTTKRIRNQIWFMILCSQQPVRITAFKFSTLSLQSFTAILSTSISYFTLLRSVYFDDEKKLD
T1 sequence (Q9VNB5 1-486 partner): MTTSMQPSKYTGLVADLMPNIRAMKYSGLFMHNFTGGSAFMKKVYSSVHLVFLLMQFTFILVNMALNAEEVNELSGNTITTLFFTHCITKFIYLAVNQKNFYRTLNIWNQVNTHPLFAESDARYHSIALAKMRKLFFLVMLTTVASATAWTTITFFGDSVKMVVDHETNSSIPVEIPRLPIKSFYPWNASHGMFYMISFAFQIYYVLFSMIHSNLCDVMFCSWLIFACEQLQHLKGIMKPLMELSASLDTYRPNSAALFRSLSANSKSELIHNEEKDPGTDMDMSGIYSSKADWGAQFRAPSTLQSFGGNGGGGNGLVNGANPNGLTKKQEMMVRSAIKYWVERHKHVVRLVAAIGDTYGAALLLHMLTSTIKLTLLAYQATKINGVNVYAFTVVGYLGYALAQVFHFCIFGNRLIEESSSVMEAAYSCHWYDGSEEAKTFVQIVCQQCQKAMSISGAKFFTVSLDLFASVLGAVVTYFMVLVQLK
Kind of assay: GCaMP6s calcium imaging of Sf21 cells, dose-response. Format: cell-based.

As a reminder, the EC50 is the midpoint of the concentration-response curve.

On to `C=CC(O)CCCCC` (stereo not shown) [1-octen-3-ol], for which the EC50 is 8.37 µM.

Source of the values: publication PMC7650622, “3D-Printed Bubble-Free Perfusion Cartridge System for Live-Cell Imaging” (Sensors (Basel, Switzerland), 2020).
